# Laboratory results taken from patent publication US20210252011A1, “TREATMENT OF GLIOBLASTOMA WITH FASN INHIBITORS” (FORMA Therapeutics, Inc., priority 2017, published 2021).
# How the values were obtained:
# FASN enzyme = biological target: T1, FASN enzyme (Homo sapiens, UniProt P49327); assay: Enzymatic assay for FASN inhibitors; assay type: biochemical; settings: 40 nM FASN enzyme, 25° C.
# T1 construct: incubated with 10 μL of 40 nM FASN enzyme in assay buffer
# Description: Assays were performed in a 384-well black plate to measure the inhibition of FASN activity by individual compounds disclosed herein. An aliquot of 250 nL of compound was incubated with 10 μL of 40 nM FASN enzyme in assay buffer (50 mM HEPES (pH=7.3), 0.5 mM EDTA, 1 mM ascorbate, 100 mM sodium chloride and 0.04% TritonX-100) in each well at 25° C. for 60 minutes. After the plate was centrifuged briefly, 10 μL of substrate mix (20 μM acetyl-CoA, 60 μM malonyl-CoA, and 100 μM NADPH in assay buffer) was added to each well. The reaction was maintained at 25° C. for 90 minutes. The reaction was then quenched by adding 10 μL of 90 μM 7-diethylamino-3-(4′-maleimidylpheynyl)-4-methylcoumarin in 50/50 ethanol/water solution. The assay plate was incubated at 25° C. for 15 minutes and read on a plate reader with excitation and emission wavelengths at 360 nm and 530 nm, respectively. The IC50 of a given compound was calculated by fitting the dose response curve with a four-parameter logistic equation. Data shown below in Table B, where compounds having an activity designated as “A” provided an IC50<100 nm and compounds having an activity designated as “B” provided an IC50 of 100 nm-1.00 μM.
# [1] = Determination of brain exposure in Balb/c nude mice following oral administration; assay type: in vivo; settings: 5 mg/kg oral gavage; for Brain (μM) at 2 h / Plasma (μM) at 2 h / [Brain]/[Plasma] at 2 h: 2 h post dose; for Brain (μM) at 8 h / Plasma (μM) at 8 h / [Brain]/[Plasma] at 8 h: 8 h post dose; for Brain (μM) at 2, 8 h (single value) / Plasma (μM) at 2, 8 h (single value) / Kp: one value given, time point (2 or 8 h) not stated; for Kp: mouse, brain/plasma, read-out: [Brain]/[Plasma] at 2, 8 h (single value)
# Description: Balb/c nude mice (body weight: 20-30 g; age range: approximately 6-8 weeks) were purchased from a qualified provider and acclimated for 5-7 days. The dosing formulation (dose: 5 mg/kg; concentration: 0.5 mg/mL; vehicle: PEG400:ethanol (v/v 9:1)) was prepared on the day of dosing and administered via oral gavage (dose volume: 10 mL/kg) to the mice (n=3 animals per time point). At the desired time point (2 or 8 h post dose) approximately 0.03 mL of blood sample was collected via venipuncture of peripheral veins into Heparin Na tubes and immediately placed on ice. After gently reverting the tube for approximately 10 seconds, the blood sample was centrifuged at 4,000×g for 5 minutes at 4° C. Supernatant was transferred into a micro-centrifuge tube and kept in a −80° C. freezer. Prior to brain collection, mice were fully exsanguinated via the following procedure: the chest cavity was opened, the ventricle was cut and a gentle iv saline flush (saline flush volume ˜20 mL) was performed with the animal placed head down at a 45 degree angle to facilitate blood removal. Brain samples were collected at the desired time point (2 or 8 h post dose), quick frozen in an ice box, and kept at −75±15° C. All brain samples were weighed and homogenated with buffer (brain weight (g) to PBS volume (mL) ratio of 1:4) before analysis. The actual concentration is the detected value multiplied by the dilution factor. For plasma sample analysis, plasma samples were quantified against a standard curve in plasma of Balb/c nude mice using an LC-MS/MS Method. For brain sample analysis, brain samples were quantified against a standard curve in brain homogenate of Balb/c nude mice using an LC-MS/MS Method. Each standard curve covered at least 6 calibration points including lower limit of quantification (LLOQ).
# T1 sequence (P49327 whole entry): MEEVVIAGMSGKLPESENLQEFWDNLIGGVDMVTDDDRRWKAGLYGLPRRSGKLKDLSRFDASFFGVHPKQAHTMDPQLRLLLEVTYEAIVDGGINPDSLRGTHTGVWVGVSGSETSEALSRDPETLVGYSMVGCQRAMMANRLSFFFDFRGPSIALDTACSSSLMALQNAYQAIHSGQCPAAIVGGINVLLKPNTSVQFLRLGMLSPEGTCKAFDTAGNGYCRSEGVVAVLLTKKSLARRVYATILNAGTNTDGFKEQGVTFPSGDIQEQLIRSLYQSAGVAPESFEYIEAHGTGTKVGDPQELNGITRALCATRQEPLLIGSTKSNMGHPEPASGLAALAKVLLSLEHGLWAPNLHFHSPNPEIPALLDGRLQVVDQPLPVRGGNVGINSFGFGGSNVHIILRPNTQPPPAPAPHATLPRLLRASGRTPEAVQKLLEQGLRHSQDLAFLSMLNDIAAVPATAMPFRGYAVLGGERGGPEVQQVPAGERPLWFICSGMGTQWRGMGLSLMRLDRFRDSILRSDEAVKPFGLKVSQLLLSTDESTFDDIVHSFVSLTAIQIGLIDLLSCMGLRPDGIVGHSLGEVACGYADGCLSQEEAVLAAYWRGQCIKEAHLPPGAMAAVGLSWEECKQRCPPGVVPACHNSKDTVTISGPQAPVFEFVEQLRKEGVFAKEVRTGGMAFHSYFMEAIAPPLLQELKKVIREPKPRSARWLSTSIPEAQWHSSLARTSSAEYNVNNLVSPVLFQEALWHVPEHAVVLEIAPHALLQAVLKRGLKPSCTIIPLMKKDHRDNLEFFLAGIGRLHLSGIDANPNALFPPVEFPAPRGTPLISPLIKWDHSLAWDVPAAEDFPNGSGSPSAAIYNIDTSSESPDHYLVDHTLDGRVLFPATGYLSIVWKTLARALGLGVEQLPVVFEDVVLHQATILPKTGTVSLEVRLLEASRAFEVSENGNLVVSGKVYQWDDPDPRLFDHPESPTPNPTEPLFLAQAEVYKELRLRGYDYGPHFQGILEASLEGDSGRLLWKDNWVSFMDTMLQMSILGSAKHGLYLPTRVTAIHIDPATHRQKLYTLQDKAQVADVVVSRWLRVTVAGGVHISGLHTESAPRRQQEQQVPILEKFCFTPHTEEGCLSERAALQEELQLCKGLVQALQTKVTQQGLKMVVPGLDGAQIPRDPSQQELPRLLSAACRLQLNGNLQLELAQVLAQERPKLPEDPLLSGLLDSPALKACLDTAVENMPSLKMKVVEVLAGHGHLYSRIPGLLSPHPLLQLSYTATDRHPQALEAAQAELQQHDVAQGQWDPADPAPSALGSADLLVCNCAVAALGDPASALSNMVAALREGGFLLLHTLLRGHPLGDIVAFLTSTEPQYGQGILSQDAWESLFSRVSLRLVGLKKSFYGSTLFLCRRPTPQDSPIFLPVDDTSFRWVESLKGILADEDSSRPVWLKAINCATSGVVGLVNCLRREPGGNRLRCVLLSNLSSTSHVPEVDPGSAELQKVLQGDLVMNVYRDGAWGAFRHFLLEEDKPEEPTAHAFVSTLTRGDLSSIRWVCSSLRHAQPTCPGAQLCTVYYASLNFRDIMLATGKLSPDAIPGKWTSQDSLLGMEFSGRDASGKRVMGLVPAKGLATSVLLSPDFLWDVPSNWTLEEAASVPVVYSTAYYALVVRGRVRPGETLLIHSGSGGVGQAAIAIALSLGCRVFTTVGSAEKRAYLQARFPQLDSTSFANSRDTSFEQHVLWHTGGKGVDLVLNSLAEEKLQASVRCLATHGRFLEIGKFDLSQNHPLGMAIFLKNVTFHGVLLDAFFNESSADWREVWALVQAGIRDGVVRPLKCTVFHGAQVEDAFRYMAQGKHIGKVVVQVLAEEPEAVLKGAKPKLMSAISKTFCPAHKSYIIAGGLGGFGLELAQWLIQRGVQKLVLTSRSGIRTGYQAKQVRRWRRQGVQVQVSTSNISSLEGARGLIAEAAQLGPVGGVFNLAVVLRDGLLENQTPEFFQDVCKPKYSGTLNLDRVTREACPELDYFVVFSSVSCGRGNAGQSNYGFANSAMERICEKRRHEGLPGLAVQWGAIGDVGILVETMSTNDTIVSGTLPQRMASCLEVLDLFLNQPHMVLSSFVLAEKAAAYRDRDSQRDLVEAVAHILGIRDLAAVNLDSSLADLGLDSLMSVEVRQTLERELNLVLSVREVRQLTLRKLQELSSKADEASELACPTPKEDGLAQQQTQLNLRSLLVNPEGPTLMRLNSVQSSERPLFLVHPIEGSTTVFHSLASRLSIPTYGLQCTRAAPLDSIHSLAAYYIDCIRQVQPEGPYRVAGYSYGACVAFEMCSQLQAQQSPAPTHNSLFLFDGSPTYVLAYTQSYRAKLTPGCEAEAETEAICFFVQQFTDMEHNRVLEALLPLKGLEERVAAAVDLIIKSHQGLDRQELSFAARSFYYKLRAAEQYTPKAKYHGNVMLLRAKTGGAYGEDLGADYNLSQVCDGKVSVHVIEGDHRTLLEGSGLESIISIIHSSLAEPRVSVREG
SMILES,IC50 (FASN enzyme) [nM],Brain (μM) at 2 h [1] [µM],Plasma (μM) at 2 h [1] [µM],[Brain]/[Plasma] at 2 h [1],Brain (μM) at 8 h [1] [µM],Plasma (μM) at 8 h [1] [µM],[Brain]/[Plasma] at 8 h [1],"Brain (μM) at 2, 8 h (single value) [1] [µM]","Plasma (μM) at 2, 8 h (single value) [1] [µM]",Kp [1]
Cn1cc(-c2ccc(-c3ccc(C(=O)N4CCN(C(=O)C5(O)CC5)CC4)cc3)cc2)cn1 [Compound 13],< 100,0.28,5.8,0.05,0.12,3.1,0.04,–,–,–
O=C(c1ccc(-c2nc3ccc(F)cc3o2)cc1F)N1CCN(C(=O)[C@H]2CCCO2)CC1 [Compound 6],100 to 1000,–,–,–,–,–,–,0.042,0.396,0.105
C[C@H]1CN(C(=O)c2ccc(-c3ccc4c(c3)ncn4C)cc2F)CCN1C(=O)C1(O)CC1 [Compound 10],< 100,0.04,4.4,0.007,0.004,1.0,0.004,–,–,–
O=C(c1ccc(-c2nc3ccc(F)cc3o2)cc1)N1CCN(C(=O)C2(O)CC2)CC1 [Compound 3],100 to 1000,1.8,7.8,0.23,0.89,3.3,0.27,–,–,–
Cn1cnc2cc(-c3ccc(C(=O)N4CCN(C(=O)C5(O)CC5)CC4)cc3)ccc21 [Compound 12],100 to 1000,0.02,1.5,0.014,0.0,0.2,0.000,–,–,–
C[C@@H]1CN(C(=O)c2ccc(-c3nc4ccc(F)cc4o3)cc2)C[C@H](C)N1C(=O)C1(O)CC1 [Compound 2],< 100,0.3,1.4,0.20,0.01,0.06,0.21,–,–,–
Cn1cnc2cc(-c3ccc(C(=O)N4CCN(C(=O)C5(O)CC5)CC4)c(F)c3)ccc21 [Compound 9],< 100,0.03,5.2,0.006,0.007,0.6,0.012,–,–,–
C[C@@H]1CN(C(=O)c2ccc(-c3nc4ccc(F)cc4o3)cc2)C[C@H](C)N1C(=O)C1(N)CC1 [Compound 8],100 to 1000,–,–,–,–,–,–,0.038,0.309,0.12

# The remaining lines, values ahead:
IC50 (FASN enzyme) [nM],Brain (μM) at 2 h [1] [µM],Plasma (μM) at 2 h [1] [µM],[Brain]/[Plasma] at 2 h [1],Brain (μM) at 8 h [1] [µM],Plasma (μM) at 8 h [1] [µM],[Brain]/[Plasma] at 8 h [1],"Brain (μM) at 2, 8 h (single value) [1] [µM]","Plasma (μM) at 2, 8 h (single value) [1] [µM]",Kp [1],SMILES
100 to 1000,1.4,8.4,0.17,0.62,3.3,0.19,–,–,–,O=C(c1ccc(-c2nc3ccc(F)cc3o2)cc1F)N1CCN(C(=O)C2(O)CC2)CC1 [Compound 5]
< 100,1.6,10.6,0.15,0.17,1.1,0.16,–,–,–,C[C@H]1CN(C(=O)c2ccc(-c3nc4ccc(F)cc4o3)cc2F)CCN1C(=O)C1(O)CC1 [Compound 4]
100 to 1000,–,–,–,–,–,–,0.013,0.238,0.05,C[C@H]1CN(C(=O)c2ccc(-c3nc4ccc(F)cc4o3)cc2F)CCN1C(=O)C1(N)CC1 [Compound 7]
< 100,0.02,4.4,0.005,0.0,0.6,0.000,–,–,–,C[C@H]1CN(C(=O)c2ccc(-c3ccc4c(c3)ncn4C)cc2)CCN1C(=O)C1(O)CC1 [Compound 11]
100 to 1000,1.3,7.3,0.18,0.40,2.1,0.20,–,–,–,C[C@H]1CN(C(=O)c2ccc(-c3nc4ccc(F)cc4o3)cc2)CCN1C(=O)C1(O)CC1 [Compound 1]
